Laboratory results from patent US5599793A, “Antithromobotic agents” (Eli Lilly and Company, priority 1995, dated 1997).

Legend:
Plasmin = target: T1, Plasmin (Homo sapiens, UniProt P00747); test: Serine protease selectivity, chromogenic substrate (Kass), plasmin; assay type: biochemical; details: substrate H-D-Val-Leu-Lys-p-nitroanilide
T1 construct: Human plasmin is purchased; purchased Boehringer Mannheim, Indianapolis, Ind
Method: (§1) The assay is carried out by mixing 50 μL buffer (0.03M Tris, 0.15M NaCl, pH 7.4) with 25 μL of bovine thrombin or human thrombin solution (0.21 mg/mL of thrombostat bovine thrombin, Parke-Davis, or purified human thrombin, Enzyme Research Laboratories, South Bend, Ind., at about 8 NIH units/mL, in the same buffer) and 25 μL of test compound in a solvent (in 50% aqueous methanol, v:v). The 150 μL of an aqueous solution of the chromogenic substrate (at 0.25 mg/mL) are added and the rates of hydrolysis of the substrate are measured by monitoring the reactions at 405 nm for the release of p-nitroaniline. Standard curves are constructed by plotting free thrombin concentration against hydrolysis rate. The hydrolysis rates observed with test compounds are then converted to "free thrombin" values in the respective assays by use of the standard curves. The bound thrombin (bound to test compound) is calculated by subtracting the amount of free thrombin observed in each assay from the known initial amount of thrombin used in the assay. The amount of free inhibitor in each assay is calculated by subtracting the number of moles of bound thrombin from the number of moles of added inhibitor (test compound).
(§2) Kass is calculated for a range of concentrations of test compounds and the mean value is reported in units of liter per mole.
(§3) By substantially following the procedures described above for human thrombin, and using other human blood coagulation system serine proteases and proteases of the fibrinolytic system with the appropriate chromogenic substrates, identified below, selectivity of the compounds of the present invention with respect to the coagulation factor serine proteases and with respect to the fibrinolytic system serine proteases are evaluated as well as their substantial lack of interference with serine proteases of the fibrinolytic system. Thrombin inhibitors preferably should spare fibrinolysis induced by urokinase, tissue plasminogen activator (t-PA) and streptokinase. This would be important to the therapeutic use of such agents as an adjunct to streptokinase, t-PA or urokinase thrombolytic therapy and to the use of such agents as an endogenous fibrinolysis-sparing (with respect to t-PA and urokinase) antithrombotic agent. In addition to the lack of interference with the amidase activity of the fibrinolytic proteases, such fibrinolytic system sparing can be studied by the use of human plasma clots and their lysis by the respective fibrinolytic plasminogen activators.
(§4) Human plasmin is purchased from Boehringer Mannheim, Indianapolis, Ind.; nt-PA is purchased as single chain activity reference from American Diagnostica, Greenwich, Conn.; modified-t-PA6 (mt-PA6) is prepared at Eli Lilly and Company by procedure known in the art (See, Burck, et al., J. Biol. Chem., 265, […] (1990). Plasmin chromogenic substrate H-D-Val-Leu-Lys-p-nitroanilide and tissue plasminogen activator (t-PA) substrate H-D-Ile-Pro-Arg-p-nitroanilide are purchased from Kabi Vitrum, Stockholm, Sweden.

Human plasma [1] = test: Human plasma anticoagulation, thrombin time (TT); assay type: biochemical; details: concentration required to double the thrombin time, linear extrapolation
Method: (§5) Dog plasma and rat plasma is obtained from conscious mixed-breed hounds (either sex, Hazelton-LRE, Kalamazoo, Mich., U.S.A.) or from anesthetized male Sprague-Dawley rats (Harlan Sprague-Dawley, Inc., Indianapolis, Ind., U.S.A.) by venipuncture into 3.8 percent citrate. Fibrinogen is prepared from in-date ACD human blood as the fraction I-2 according to previous procedures and specifications. Smith, Biochem. J., 185, 1-11 (1980); and Smith, et al., Biochemistry, 11, 2958-2967 (1972). Human fibrinogen is also purchased as 98 percent pure/plasmin free from American Diagnostica, Greenwich, Conn. Coagulation reagents ACTIN, Thromboplastin, and Human plasma are from Baxter Healthcare Corp., Dade Division, Miami, Fla. Bovine thrombin from Parke-Davis ([…], Mich.) is used for coagulation assays in plasma.
(§6) Coagulation assay procedures are as previously described. Smith, et al., Thrombosis Research, 50, 163-174 (1988). A CoAScreener coagulation instrument (American LABor, Inc.) is used for all coagulation assay measurements. The prothrombin time (PT) is measured by adding 0.05 mL saline and 0.05 mL Thromboplastin-C reagent to 0.05 mL test plasma. The activated partial thromboplastin time (APTT) is measured by incubation of 0.05 mL test plasma with 0.05 mL Actin reagent for 120 seconds followed by 0.05 mL CaCl2 (0.02M). The thrombin time (TT) is measured by adding 0.05 mL saline and 0.05 mL thrombin (10 NIH units/mL) to 0.05 mL test plasma. The compounds of formula I are added to human or animal plasma over a wide range of concentrations to determine prolongation effects on the APTT, PT, and TT assays. Linear extrapolations are performed to estimate the concentrations required to double the clotting time for each assay.

Human plasma [2] = test: Human plasma anticoagulation, prothrombin time (PT); assay type: biochemical; details: concentration required to double the PT, linear extrapolation
Method: as §5, §6

Human Thrombin = Human Thrombin (Homo sapiens, UniProt P00734); test: Inhibition of amidase activity of thrombin (Kass); assay type: biochemical; details: apparent association constant, mean over a range of concentrations
Method: as §1
The Kass value is the hypothetical equilibrium constant for the reaction between thrombin and the test compound (I). [drawing 54]
as §2

t-PA = target: T2, t-PA (Homo sapiens, UniProt P00750); test: Serine protease selectivity, chromogenic substrate (Kass), t-PA; assay type: biochemical; details: substrate H-D-Ile-Pro-Arg-p-nitroanilide
T2 construct: purchased American Diagnostica, Greenwich, Conn
T2 sequence (P00750 36-562): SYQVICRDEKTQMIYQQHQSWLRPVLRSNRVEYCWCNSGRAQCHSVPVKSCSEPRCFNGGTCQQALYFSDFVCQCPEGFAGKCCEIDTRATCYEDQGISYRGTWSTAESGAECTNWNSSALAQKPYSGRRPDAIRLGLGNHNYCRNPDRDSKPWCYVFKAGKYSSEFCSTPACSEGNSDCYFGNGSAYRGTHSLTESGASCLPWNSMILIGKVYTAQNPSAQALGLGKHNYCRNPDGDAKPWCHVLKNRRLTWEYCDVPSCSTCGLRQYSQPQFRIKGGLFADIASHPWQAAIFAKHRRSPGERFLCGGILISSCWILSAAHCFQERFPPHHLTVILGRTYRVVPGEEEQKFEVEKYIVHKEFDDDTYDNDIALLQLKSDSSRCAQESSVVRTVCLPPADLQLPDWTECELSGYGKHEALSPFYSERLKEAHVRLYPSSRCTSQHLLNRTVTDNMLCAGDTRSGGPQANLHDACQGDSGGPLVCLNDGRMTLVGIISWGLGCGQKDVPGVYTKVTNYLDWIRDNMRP
Method: as §1, §2, §3, §4

factor Xa = target: T3, factor Xa (Homo sapiens, UniProt P00742); test: Serine protease selectivity, chromogenic substrate (Kass), factor Xa; assay type: biochemical; details: substrate N-Benzoyl-Ile-Glu-Gly-Arg-p-nitroanilide
T3 construct: Human factors X, Xa, IXa, XIa, and XIIa are purchased; purchased Enzyme Research Laboratories, South Bend, Ind
T3 sequence (P00742 235-488 limits assumed): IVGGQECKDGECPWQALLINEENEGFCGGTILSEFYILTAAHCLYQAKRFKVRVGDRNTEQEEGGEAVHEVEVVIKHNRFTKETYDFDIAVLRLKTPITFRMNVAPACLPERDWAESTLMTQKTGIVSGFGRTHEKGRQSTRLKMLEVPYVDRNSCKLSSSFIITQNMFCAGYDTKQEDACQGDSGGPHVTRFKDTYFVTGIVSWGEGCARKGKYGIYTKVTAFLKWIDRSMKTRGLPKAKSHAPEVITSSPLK
T3 sequence (P00742 41-179 partner limits assumed): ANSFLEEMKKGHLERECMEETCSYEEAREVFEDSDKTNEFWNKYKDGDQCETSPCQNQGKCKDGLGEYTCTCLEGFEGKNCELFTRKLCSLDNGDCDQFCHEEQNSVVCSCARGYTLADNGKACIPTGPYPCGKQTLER
Method: as §1, §2, §3
(§7) Human factors X, Xa, IXa, XIa, and XIIa are purchased from Enzyme Research Laboratories, South Bend, Ind.; human urokinase from Leo Pharmaceuticals, Denmark; and recombinant activated Protein C (aPC) is prepared at Eli Lilly and Co. substantially according to U.S. Pat. No. 4,981,952. Chromogenic substrates: N-Benzoyl-Ile-Glu-Gly-Arg-p-nitroanilide (for factor Xa); N-Cbz-D-Arg-Gly-Arg-p-nitroanilide (for factor IXa assay as the factor Xa substrate); Pyroglutamyl-Pro-Arg-p-nitroanilide (for Factor XIa and for aPC); H-D-Pro-Phe-Arg-p-nitroanilide (for factor XIIa); and Pyroglutamyl-Gly-Arg-p-nitroanilide (for urokinase); are purchased from KabiVitrum, Stockholm, Sweden, or from Midwest Biotech, Fishers, Ind. Bovine trypsin is purchased from Worthington Biochemicals, Freehold, N.J., and human plasma kallikrein from Kabi Vitrum, Stockholm, Sweden. Chromogenic substrate H-D-Pro-Phe-Arg-p-nitroanilide for plasma kallikrein is purchased from Kabi Vitrum, Stockholm, Sweden. N-Benzoyl-Phe-Val-Arg-p-nitroanilide, the substrate for human thrombin and for trypsin, is synthesized according to procedures described above for the compounds of the present invention, using known methods of peptide coupling from commercially available reactants or purchased from Midwest Biotech, Fishers, Ind.

Trypsin = target: T4, Trypsin (Bos taurus, UniProt P00760); test: Serine protease selectivity, chromogenic substrate (Kass), trypsin; assay type: biochemical, bovine; details: substrate N-Benzoyl-Phe-Val-Arg-p-nitroanilide
T4 construct: Bovine trypsin is purchased; purchased Worthington Biochemicals, Freehold, N.J
T4 sequence (P00760 24-246): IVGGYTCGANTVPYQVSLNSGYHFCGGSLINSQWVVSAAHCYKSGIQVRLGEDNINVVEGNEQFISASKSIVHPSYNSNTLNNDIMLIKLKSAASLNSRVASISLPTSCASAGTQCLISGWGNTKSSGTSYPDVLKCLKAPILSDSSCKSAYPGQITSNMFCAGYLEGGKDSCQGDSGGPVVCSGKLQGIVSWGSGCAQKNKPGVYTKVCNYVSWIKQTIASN
Method: as §1, §2, §3, §7

Human plasma [3] = test: Human plasma anticoagulation, activated partial thromboplastin time (APTT); assay type: biochemical; details: concentration required to double the APTT, linear extrapolation
Method: as §5, §6

T1 sequence (P00747 581-810 limits assumed): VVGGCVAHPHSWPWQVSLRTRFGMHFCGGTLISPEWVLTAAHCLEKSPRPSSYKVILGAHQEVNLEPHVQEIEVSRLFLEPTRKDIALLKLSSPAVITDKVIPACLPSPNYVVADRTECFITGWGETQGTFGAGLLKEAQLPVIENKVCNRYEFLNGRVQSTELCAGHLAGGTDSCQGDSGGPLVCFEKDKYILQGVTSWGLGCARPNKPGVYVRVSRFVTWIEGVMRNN
T1 sequence (P00747 97-580 partner limits assumed): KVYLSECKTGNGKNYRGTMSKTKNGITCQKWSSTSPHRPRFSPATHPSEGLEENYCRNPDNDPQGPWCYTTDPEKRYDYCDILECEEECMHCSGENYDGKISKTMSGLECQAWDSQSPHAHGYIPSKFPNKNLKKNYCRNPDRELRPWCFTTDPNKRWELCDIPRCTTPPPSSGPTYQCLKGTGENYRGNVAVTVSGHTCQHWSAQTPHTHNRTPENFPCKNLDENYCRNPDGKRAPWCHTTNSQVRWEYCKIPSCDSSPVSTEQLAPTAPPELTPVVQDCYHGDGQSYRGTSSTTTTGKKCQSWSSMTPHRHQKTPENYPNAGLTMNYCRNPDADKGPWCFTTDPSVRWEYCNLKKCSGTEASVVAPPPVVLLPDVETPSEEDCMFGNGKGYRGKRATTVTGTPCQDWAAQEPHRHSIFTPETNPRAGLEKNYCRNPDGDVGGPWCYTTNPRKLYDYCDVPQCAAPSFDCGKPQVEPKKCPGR

| SMILES | Enzyme Kass, Plasmin (Plasmin) [L/mol × 10^6] | Enzyme Kass, Human Thrombin (Human Thrombin) | Enzyme Kass, t-PA (t-PA) [L/mol × 10^6] | Enzyme Kass, Xa (factor Xa) [L/mol × 10^6] | Enzyme Kass, Trypsin (Trypsin) | 2x Clotting time, TT (Human plasma [1]) | 2x Clotting time, PT (Human plasma [2]) | 2x Clotting time, APTT (Human plasma [3]) |
| --- | --- | --- | --- | --- | --- | --- | --- | --- |
| CC(C)CC[C@H]1C[C@@H](C(=O)N[C@H](C=O)CCCNC(=N)N)N(C(=O)[C@H]2CCCCN2)C1.Cl.Cl (relative stereo) [Example 4, D-homoprolyl-L-cis-4-isoamyl-prolyl-L-argininal dihydrochloride] | 2.0 | 8.2 L/mol × 10^6 | 0.19 | 7.9 | 77 L/mol × 10^6 | 130 ng/mL | 3,100 ng/mL | 630 ng/mL |
| Cl.Cl.N=C(N)NCCC[C@@H](C=O)NC(=O)[C@@H]1C[C@H](Oc2cccc(N)c2)CN1C(=O)[C@H]1CCCCN1 (relative stereo) [Example 13, D-hPro-Pro(4-cis-(3-NH2-phenoxy))-ArgH.2 HCl] | 0.65 | 2.1 L/mol × 10^6 | 0.033 | 0.58 | 22 L/mol × 10^6 | 490 ng/mL | 9,100 ng/mL | 2,900 ng/mL |
| Cl.Cl.N=C(N)NCCC[C@@H](C=O)NC(=O)[C@@H]1C[C@H](Oc2cccc(C(=O)O)c2)CN1C(=O)[C@H]1CCCCN1 (relative stereo) [Example 19, D-hPro-Pro(4-cis-(3-COOH-phenoxy))-ArgH.2 HCl] | 0.50 | 2.8 L/mol × 10^6 | 0.022 | 1.30 | 49.3 L/mol × 10^6 | 345 ng/mL | 8,822 ng/mL | 3,497 ng/mL |
| CCS(=O)(=O)N[C@@H](C(=O)N1C[C@@H](Oc2ccccc2)C[C@H]1C(=O)N[C@H](C=O)CCCNC(=N)N)c1ccccc1.Cl (relative stereo) [Example 17, EtSO2 -D-Phg-Pro(4-cis-phenoxy)-ArgH.HCl] | 26 | 2,200 L/mol × 10^6 | 1.5 | 32 | 910 L/mol × 10^6 | 16 ng/mL | 1,200 ng/mL | 380 ng/mL |
| Cl.Cl.N=C(N)NCCC[C@@H](C=O)NC(=O)[C@@H]1C[C@H](c2ccccc2)CN1C(=O)[C@H]1CCCCN1 (relative stereo) [Example 6, D-hPro-Pro(4-cis-phenyl)-ArgH.2 HCl] | 5.3 | 2.9 L/mol × 10^6 | 0.065 | 5.7 | 240 L/mol × 10^6 | 340 ng/mL | 4,100 ng/mL | 840 ng/mL |

More lines, main results first:

| Enzyme Kass, Plasmin (Plasmin) [L/mol × 10^6] | Enzyme Kass, Human Thrombin (Human Thrombin) | Enzyme Kass, t-PA (t-PA) [L/mol × 10^6] | Enzyme Kass, Xa (factor Xa) [L/mol × 10^6] | Enzyme Kass, Trypsin (Trypsin) | SMILES | 2x Clotting time, TT (Human plasma [1]) | 2x Clotting time, PT (Human plasma [2]) | 2x Clotting time, APTT (Human plasma [3]) |
| --- | --- | --- | --- | --- | --- | --- | --- | --- |
| 14.0 | 5.4 L/mol × 10^6 | – | 11.6 | 633 L/mol × 10^6 | CC(C)CC[C@H]1C[C@@H](C(=O)N[C@H](C=O)CCCNC(=N)N)N(C(=O)[C@H]2CC3CCCCC3CN2)C1.Cl.Cl (relative stereo) [Example 27, D-3-cis-Piq-Pro(4-cis-isoamyl)-ArgH.2 HCl] | 116 ng/mL | 1,232 ng/mL | 395 ng/mL |
| 0.27 | 0.41 L/mol × 10^6 | – | 0.14 | 20.30 L/mol × 10^6 | CC(C)CC[C@H]1C[C@@H](C(=O)N[C@H](C=O)CCCNC(=N)N)N(C(=O)C2NCCC3CCCCC32)C1.Cl.Cl (relative stereo) [Example 28, 1-Piq-Pro(4-cis-isoamyl)-ArgH.2 HCl] | 3,637 ng/mL | 43,401 ng/mL | 22,727 ng/mL |
| 11.3 | 15.6 L/mol × 10^6 | – | 2.53 | 718 L/mol × 10^6 | Cl.Cl.NC(N)=NCCCC(C=O)NC(=O)C1CC(Oc2ccccc2)CN1C(=O)C1CC2CCCCC2CN1 [Example 26, D-3-cis-Piq-Pro(4-cis-phenoxy)-ArgH.2 HCl] | 82 ng/mL | 1,322 ng/mL | 392 ng/mL |
| 12.4 | 82 L/mol × 10^6 | – | 0.67 | 1,040 L/mol × 10^6 | Cl.Cl.N=C(N)NCCCC(C=O)NC(=O)C1CC2CCCCC2N1C(=O)C1CC2CCCCC2CN1 [Example 25, D-3-cis-Piq-cis-Ohi-ArgH.2 HCl] | 25 ng/mL | 1,232 ng/mL | 548 ng/mL |
